According to patent US11590158B2, “Pharmaceutical compositions of lipoic acid choline ester salts and methods of treatment using same” (Novartis AG, priority 2020, dated 2023):
“Also recorded” adds a separate entry of the source. Counter-ions that a name gives are not always drawn. Like-named read-outs stand apart in the source and are kept apart here.

Columns and labels:
[1] = Stability in organic solutions or suspensions; type: physicochemical; details: 40° C. for 1 week
[2] = Photostability; type: physicochemical
[3] = Hygroscopicity (exposure to RH, DVS); type: physicochemical; details: for Hygroscopicity upon exposure: 58% RH for one day; for Hygroscopicity: solid salt, ambient conditions
Source text: It is deliquescent upon exposure to 58% RH for one day. In DVS measurement, LACE chloride absorbs 18.6% moisture from 0% RH to 50% RH. The DVS isotherm is irreversible. It is amorphous at ambient but crystalline under 0% RH by Cryo-XRPD.

[4] = 1 week
Method: (§1) LACE salts were dissolved in each of the following excipients: 0.01% benzalkonium chloride, 20 mM acetate buffer, 20 mM citrate buffer, 1% Na-carboxymethyl cellulose, 1% hydroxypropylmethyl cellulose and 0.01% Na-ethylene diamine tetraacetic acid.

[5] = Hygroscopicity (exposure to RH, DVS); type: physicochemical; details: for Hygroscopicity / Hygroscopicity, water uptake: DVS; for Hygroscopicity: >70% RH; for Hygroscopicity, water uptake: until 70% RH
[6] = Solid state stability
[7] = Equilibration of LACE chloride in solvents (solubility test); type: physicochemical; details: 100 mg in 1 mL, 25° C. for 7 days
Source text: The mixture was equilibrated for 7 days, with visual observations at days 1, 2, and 7. If a slurry resulted, it was filtered and clear solutions were either cooled or evaporated.

[8] = Stability in aqueous solutions or suspensions; type: physicochemical
Source text: At pH 4.7 buffer solution about 4% degradation is observed.

[9] = Excipient compatibility
Method: as §1

[10] = test system: rabbit eye; experiment: Acute rabbit ocular tolerability study; type: in vivo; details: rabbit left eye dosed 6 times, one drop about 30 microliter, about 1 hour apart
Method: A number of excipients were explored to determine which excipients would reduce the formation of associative species. Acute rabbit ocular tolerability studies were performed to test the ocular tolerability of LACE tosylate with various excipients. The study design involved three male rabbits per arm. The rabbits' left eye was dosed 6 times with one drop each time, about 1 hour apart, administering about 30 microliter per drop. The right eye was not dosed and served as a control.

[11] = test system: Staphylococcus aureus, Pseudomonas aeruginosa, Escherichia coli, Candida albicans, and Aspergillus brasiliensis; experiment: Preservative efficacy test, overall outcome against USP criteria; type: cell-based; details: formulations with cyclodextrin
Method: The testing was carried out using the following procedure: Five different challenge organisms were evaluated (Staphylococcus aureus, Pseudomonas aeruginosa, Escherichia coli, Candida albicans, and Aspergillus brasiliensis) were evaluated for each test formulation, and inoculated to a concentration of 10^6 colony forming units per ml (CFU/ml). The microbial suspension was incubated and sampled at 7, 14, 21, and 28 days. At the time of sampling, a sample was diluted 10-fold into tryptase soy broth medium, and 100 μl plated in growth agar plates to count survivors. The survivor count was used to determine log reduction. The preservative efficacy test criteria for multidose pharmaceutical compositions under US Pharmacopoeia standards are as follows. [table]

[12] = other solvents (EtOAC, acetone, IPA and THF)
[13] = pH 4.7 buffer solution, 40° C. for 1 week
[14] = 5% solutions in aqueous excipients (0.01% BAC, 20 mM acetate, 20 mM citrate, 1% Na-CMC, 1% HPMC, 0.01% Na-EDTA), 40° C. for 2 weeks
[15] = same excipients, 40° C. for 2 weeks
[16] = same excipients, 40° C./75% RH for 2 weeks

C[N+](C)(C)CCOC(=O)CCCCC1CCSS1 (stereo not shown) [LACE-OTs, lipoic acid choline ester tosylate]
degradation ([1]; methanol and ethanol): complete degradation | degradation [1, 12]: severe degradation | photostability ([2]; amber vial): stable | photostability, physical form ([2]; amber vial): remains the same | photostability, degradation ([2]; clear vial): severe degradation and color change | photostability, physical form ([2]; clear vial): some amorphous content | Hygroscopicity upon exposure [3]: non-hygroscopic | degradation [4]: < 2% | degradation ([4]; 5 %): 1-3% | moisture absorbed in DVS ([5]; up to 60% RH): less than 2% | physical form ([6]; 40° C. 75% RH for 1 week): become sticky | solid state stability / physical form ([6]; 40° C. for 1 week): stable | behaviour on handling / exposure at ambient conditions [6]: without any degradation

C[N+](C)(C)CCOC(=O)CCCC[C@@H]1CCSS1.[Cl-] [LACE-Cl, lipoic acid choline ester chloride]
Comments (equilibration in solvent) ([7]; 2-Me-THF): sticky solid | Comments (equilibration in solvent) ([7]; 2 Methyl 2 butanone): Clear solution after 7 days | Comments (equilibration in solvent) ([7]; ACN): Clear solution after 7 days | Comments (equilibration in solvent) ([7]; Acetic acid): almost dissolved | Comments (equilibration in solvent) ([7]; Acetone): initial suspension, with particles stuck on wall | Comments (equilibration in solvent) ([7]; Anisole): sticky solid | Comments (equilibration in solvent) ([7]; Benzyl alcohol): Clear solution after 7 days | Comments (equilibration in solvent) ([7]; Chloroform): clear solution that yielded an oil after | Comments (equilibration in solvent) ([7]; Cumene): undissolved solid after 7 days | Comments (equilibration in solvent) ([7]; Cyclohexane): undissolved solid after 7 days | Comments (equilibration in solvent) ([7]; DCM): Clear solution after 7 days | Comments (equilibration in solvent) ([7]; Diethyl ether): undissolved solid after 7 days | Comments (equilibration in solvent) ([7]; Dioxane): initial suspension, with particles stuck on wall | Comments (equilibration in solvent) ([7]; EtOAc): suspension | Comments (equilibration in solvent) ([7]; EtOH): Clear solution after 7 days | Comments (equilibration in solvent) ([7]; Ethyl formate): suspension | Comments (equilibration in solvent) ([7]; IPAc): undissolved solid after 7 days | Comments (equilibration in solvent) ([7]; MEK): initial suspension, with particles stuck on wall | Comments (equilibration in solvent) ([7]; MTBE): initial suspension, with particles stuck on wall | Comments (equilibration in solvent) ([7]; MeOH): Clear solution after 7 days | Comments (equilibration in solvent) ([7]; Nitromethane): Clear solution after 7 days | Comments (equilibration in solvent) ([7]; Petroleum ether): undissolved solid after 7 days | Comments (equilibration in solvent) ([7]; Propylene glycol): Clear solution after 7 days | Comments (equilibration in solvent) ([7]; Pyridine): almost dissolved | Comments (equilibration in solvent) ([7]; THF): initial suspension turning sticky | Comments (equilibration in solvent) ([7]; Toluene): sticky solid | Comments (equilibration in solvent) ([7]; Water): Clear solution after 7 days | Comments (equilibration in solvent) ([7]; Xylene): undissolved solid after 7 days | degradation [8, 13]: about 4% | degradation ([1]; methanol and ethanol): complete degradation | degradation [1, 12]: severe degradation | photostability, degradation ([2]; amber vial): ~5% | photostability, physical form ([2]; amber vial): becomes sticky | photostability, degradation ([2]; clear vial): severe degradation and color change | photostability, physical form ([2]; clear vial): becomes sticky | Hygroscopicity upon exposure [3]: deliquescent | moisture absorbed in DVS ([3]; from 0% RH to 50% RH): 18.6% | Hygroscopicity [3]: highly hygroscopic | degradation ([6]; 40° C. 75% RH for 1 week): approximately 7% | physical form ([6]; 40° C. 75% RH for 1 week): becomes sticky mass | degradation ([6]; 40° C. for 1 week): approximately 7% | solid state stability / physical form ([6]; 40° C. for 1 week): becomes sticky mass | behaviour on handling / exposure at ambient conditions [6]: not suitable for handling under normal conditions | degradation [9, 14]: about 5% | degradation ([9]; in Na-CMC, alanine and histidine, 25° C. for 1 week): 2-3% | degradation [9, 15]: higher degradation | degradation [9, 16]: high-severe degradation | degradation ([9]; with HPMC, 25° C. for 1 week): ~8% | degradation ([9]; with HPβCD, 25° C. for 1 week): 3.35%

C[N+](C)(C)CCOC(=O)CCCCC1CCSS1.Cc1ccc(S(=O)(=O)[O-])cc1 (stereo not shown) [Form A, lipoic acid choline ester tosylate]
Hygroscopicity [5]: deliquescent >70% RH | Hygroscopicity, water uptake [5]: 0.64% water uptake until

CC(O)CO (stereo not shown) [Propylene Glycol]
Tolerated [10]: No

C[N+](C)(C)CCOC(=O)CCCCC1CCSS1.[I-] (stereo not shown) [LACE-I, lipoic acid choline ester iodide]
degradation [8, 13]: about 4% | degradation ([1]; methanol and ethanol): complete degradation | degradation [1, 12]: severe degradation | photostability ([2]; amber vial): stable | photostability, physical form ([2]; amber vial): remains the same | photostability, degradation ([2]; clear vial): severe degradation and color change | photostability, physical form ([2]; clear vial): remains unchanged | Hygroscopicity upon exposure [3]: non-hygroscopic | Hygroscopicity by DVS ([3]; DVS): non-hygroscopic | physical form ([6]; 40° C. 75% RH for 1 week): form remains the same | solid state stability / physical form ([6]; 40° C. for 1 week): stable | behaviour on handling / exposure at ambient conditions [6]: changes color; also recorded: discoloration and possibly slow degradation | degradation [9, 14]: about 5% | degradation [9, 15]: higher degradation | degradation [9, 16]: high-severe degradation

C[N+](C)(C)CCOC(=O)CCCCC1CCSS1 (stereo not shown) [LACE-OBs, lipoic acid choline ester besylate]
degradation ([8]; 1 week): 10-99% | degradation ([8]; 1 week, pH 4.7): about 4% | degradation ([1]; methanol and ethanol): complete degradation | degradation [1, 12]: severe degradation | photostability ([2]; amber vial): stable | photostability, physical form ([2]; amber vial): remains the same | photostability, degradation ([2]; clear vial): severe degradation and color change | photostability, physical form ([2]; clear vial): decrease in crystallinity | Hygroscopicity upon exposure [3]: deliquescent | Hygroscopicity [3]: hygroscopic | degradation [4]: < 2% | Hygroscopicity upon exposure ([5]; 58% RH up to 6 hours): non hygroscopic | Hygroscopicity by DVS ([5]; DVS from 50% RH to 90% RH): deliquescent | physical form ([6]; 40° C. 75% RH for 1 week): become sticky | solid state stability / physical form ([6]; 40° C. for 1 week): stable

N=C(N)NC(=N)N [Biguanide]
efficacy as a preservative in LACE tosylate formulations [11]: not found to be efficacious

lipoic acid choline ester besylate [LACE-OBs]
behaviour on handling / exposure at ambient conditions [6]: without any degradation

C[N+](C)(C)CCOC(=O)CCCCC1CCSS1.Cc1ccc(S(=O)(=O)[O-])cc1 (stereo not shown) [Form B, lipoic acid choline ester tosylate]
Hygroscopicity [5]: deliquescent >70% RH | Hygroscopicity, water uptake [5]: 0.55% water uptake until

C[N+](C)(C)CCOC(=O)CCCCC1CCSS1.[Br-] (stereo not shown) [LACE bromide]
Hygroscopicity [3]: hygroscopic
